From patent publication US9932339B2, “Helquats with heteroaromatic substituents, preparation thereof, and use thereof as G-quadruplex stabilizers” (USTAV ORGANICKE CHEMIE A BIOCHEMIE AV CR, V.V.I., priority 2014, dated 2018)
pIC50: −log10 of the molar value. Like-named read-outs stand apart in the source and are kept apart here.

How the values were obtained:
[1] = test system: G-quadruplex in promoter region of the c-myc gene (NHE III1 segment); experiment: Dual luciferase analysis with plasmid pGL4.10-myc (luc2) in HGC-27 cells; type: cell-based, human; conditions: for luciferase expression relative to control (control = 100%) / activity at 50 µM: helquat 50 μmol · l^−1, HGC-27, firefly normalized to Renilla, 24 hours after transfection; for inhibition at 50 µM / activity at 50 µM: Homo sapiens; for inhibition at 50 µM: HGC-27, text summary of tab. 5 (50 μmol·l^−1), read-out: inhibition of expression of firefly luciferase as compared to control; for activity at 50 µM: read-out: luciferase expression relative to control (control = 100%)
Source text: A dual luciferase analysis was used to determine the degree of stabilization of G-quadruplex in a promoter region of the c-myc gene on cellular level. Stabilization of G-quadruplex is expressed as the ratio of expression of two luciferases (firefly and Renilla) from the co-transfected vectors pGL4.10-myc (luc2) and pRL-TK (Renilla) into a cell line HGC-27 expressing c-myc protein. Expression of the reporter gene (firefly luciferase) from pGL4.10-myc vector is controlled by the c-myc regulatory region of a length of 860 by (in the range from −306 to +554). The inserted sequence contains NHE III1 segment which forms G-quadruplex [Yang, D. et al. (2010) Future Med Chem., 2, 619], and is responsible for as much as 90% of the transcriptional activity of the c-myc gene.
Level of expression of firefly luciferase reporter gene corresponds to promoter activity of c-myc and thus to the degree of stabilization of the G-quadruplex. The signal is normalized to Renilla luciferase expression from pRL-TK vector under the control of a constitutive viral thymidine kinase (HSV-TK) promoter. The amount of Renilla luciferase expression serves as an internal control for normalization of firefly signal on transfection efficiency in the sample. Plasmids pGL4.10-myc (luc2) and pRL-TK were propagated in Escherichia coli (DH5α strain) and purified using the Qiagen Plasmid Mini and Midi kits. Cells were cultured under standard conditions and in exponential growth phase were seeded into a white 96-well microtiter plates. Transfection was carried out using a transfection reagent X-tremeGENE HP DNA in OptiMEM media for two hours. The ratio of reporter and control vector was 1:1 and the ratio of transfection reagent to the total amount of DNA was 1:1. Two hours after transfection helquats were added in a concentration of 50 μmol·l^−1. Quantity of firefly and Renilla luciferases in the samples was determined 24 hours after transfection. Dual luciferase analysis was performed using a commercially available kit (Promega, cat. No. E1960) according to manufacturer's instructions. Luminescence was measured using a luminometer EnSpire Alpha Plate Reader. The data obtained were normalized to the Renilla luciferase signal and then the values were related to control.

[2] = test system: CCRF-CEM; experiment: XTT cytotoxicity/proliferation assay, CCRF-CEM; type: cell-based
Procedure: To assess the antiproliferative effects of the tested substances in vitro, tumor cell line CCRF-CEM derived from acute lymphoblastic leukemia and normal (healthy) HUVEC endothelial cells from umbilical vein were used. Both of these cell lines were cultured under optimal conditions for their growth in the appropriate medium in plastic bottles or plastic Petri dishes of various sizes (TPP, BD Biosciences) at 37° C., 5% CO2 and 95% humidity. HUVEC cells were purchased from BD Biosciences. CCRF-CEM cell line was obtained from ATCC/LGC Standards (American Type Cell Collection).
Suspension cell line CCRF-CEM is a continuous in vitro culture of acute lymphoblastic leukemia. Cell line CCRF-CEM was grown in RPMI 1640 medium (Sigma-Aldrich, cat. No. R8758) supplemented with 2 mmol·l^−1 glutamine (Invitrogen, cat. No. 35050-038), 10% fetal bovine serum (FBS; Sigma-Aldrich, cat. No. F9665), 100 IU/ml penicillin, 100 μg/ml streptomycin (Sigma-Aldrich, cat. No. P0781). Passaging was carried out 2-3 times a week. Population doubling time of CCRF-CEM cells under the used culture conditions is 20 hours.
For testing of the sensitivity of cell lines to studied helquats XTT cytotoxicity/proliferation assay for determination of cell viability was used. This method is based on the ability of metabolically active cells to reduce the yellow tetrazolium salt XTT to orange formazan. The rate of conversion is measured as the increase in absorbance at 492 nm and is proportional to the enzymatic activity of mitochondrial dehydrogenases and thus the number of metabolically active (viable) cells. The output is the IC50 value corresponding to the concentration of the test substance that causes a decrease in the number of viable cells by half (i.e. 50% slowdown of cell division) relative to the control, untreated population. Thus it reflects the effectiveness of the test substance towards the tested cell line.
Cells in exponential growth phase were plated into 96-well microtiter plate at a concentration of 3000 cells per well. Each well contained 90 μl of cell suspension. The following day, 10 μl of 10× concentrated test substances was added. Effect of helquats has been studied in the concentration range 1-100 μmol·l^−1 (or 1, 2.5, 5, 7.5, 10; 15; 25; 50 and 100 μmol·l^−1). In addition to the part of the plate containing the mentioned dilutions of test compounds there were always two control columns present, first column with medium alone (i.e. blank) and the second column with the cells in medium without test compounds (control). Into the blank and control wells the same volume of solvent (water) as the volume of the substances was added. After 72 hours of treatment with substances the measurement of viability was performed according to the manufacturer instructions. Briefly, into each well of a 96-well microtiter plate 50 μl of the prepared working solution of XTT (detection reagent) was added and then the microtiter plate was returned to the CO2 incubator. After 2 hours, the absorbance of each well at 492 nm (reference wavelength 690 nm) was measured using a multifunctional microplate reader (Tecan Genios, Austria).
The results of determination of the viability of cancer and normal cells after treatment with different concentrations of test substances are summarized in Table 9. […] Each concentration of a helquat was tested in triplicates within one IC50 value determination. Each of these IC50 value determinations was repeated in at least three independent experiments. Values above 100 μmol·l^−1 were obtained by extrapolation of data measured in the concentration range 0-100 μmol·l^−1 of helquats.

[3] = test system: HUVEC; experiment: XTT cytotoxicity/proliferation assay, HUVEC; type: cell-based, human
Procedure: To assess the antiproliferative effects of the tested substances in vitro, tumor cell line CCRF-CEM derived from acute lymphoblastic leukemia and normal (healthy) HUVEC endothelial cells from umbilical vein were used. Both of these cell lines were cultured under optimal conditions for their growth in the appropriate medium in plastic bottles or plastic Petri dishes of various sizes (TPP, BD Biosciences) at 37° C., 5% CO2 and 95% humidity. HUVEC cells were purchased from BD Biosciences. CCRF-CEM cell line was obtained from ATCC/LGC Standards (American Type Cell Collection). Normal human endothelial cells from the umbilical vein are adherent cells, which were grown in plastic Petri dishes coated with collagen I. The culture medium (E-STIMTM; BD Biosciences, cat. […] Then, 5 ml of complete culture media E-STIM™ was added and the cells were centrifuged (180×g, 7 minutes), resuspended and transferred in a desired amount in a new Petri dish with fresh medium. In the experiments cells between passages 3 and 8 (after thawing) were used. Population doubling time of HUVEC cells under the used culture conditions is 38 hours. For testing of the sensitivity of cell lines to studied helquats XTT cytotoxicity/proliferation assay for determination of cell viability was used. This method is based on the ability of metabolically active cells to reduce the yellow tetrazolium salt XTT to orange formazan. The rate of conversion is measured as the increase in absorbance at 492 nm and is proportional to the enzymatic activity of mitochondrial dehydrogenases and thus the number of metabolically active (viable) cells. […] Thus it reflects the effectiveness of the test substance towards the tested cell line. Cells in exponential growth phase were plated into 96-well microtiter plate at a concentration of 3000 cells per well. Each well contained 90 μl of cell suspension. The following day, 10 μl of 10× concentrated test substances was added. […] In addition to the part of the plate containing the mentioned dilutions of test compounds there were always two control columns present, first column with medium alone (i.e. blank) and the second column with the cells in medium without test compounds (control). Into the blank and control wells the same volume of solvent (water) as the volume of the substances was added. After 72 hours of treatment with substances the measurement of viability was performed according to the manufacturer instructions. Briefly, into each well of a 96-well microtiter plate 50 μl of the prepared working solution of XTT (detection reagent) was added and then the microtiter plate was returned to the CO2 incubator. After 2 hours, the absorbance of each well at 492 nm (reference wavelength 690 nm) was measured using a multifunctional microplate reader (Tecan Genios, Austria).

[4] = Homo sapiens, CCRF-CEM, 72 hours of treatment, read-out: IC50 CCRF CEM
[5] = Homo sapiens, CCRF-CEM, 72 hours, summary of table 9, read-out: concentrations toxic towards CCRF-CEM cells
[6] = Homo sapiens, HUVEC, 72 hours of treatment, values above 100 μmol·l^−1 obtained by extrapolation, read-out: IC50 HUVEC
[7] = Homo sapiens, HUVEC, 72 hours, summary of table 9, read-out: concentrations non-toxic towards HUVEC cells
[8] = 72 hours of treatment, read-out: IC50 CCRF CEM
[9] = 72 hours of treatment, values above 100 μmol·l^−1 obtained by extrapolation, read-out: IC50 HUVEC

Compound	pIC50 [2, 4]	pIC50 [2, 5]	pIC50 [3, 6]	pIC50 [3, 7]	also measured
2,13-bis((E)-2-(5-bromothiophen-2-yl)vinyl-8,9-dimethyl-6,7,10,11-tetrahydrodipyrido[2,1-a: 1′,2′-k][2,9]phenanthroline-5,12-diium trifluoromethanesulfonate [MJB-C5-3]					luciferase expression relative to control (control = 100%) [1]: 65%
Cc1c(C)c2c(c3c1CC[n+]1ccc(/C=C/c4ccc5oc6ccccc6c5c4)cc1-3)-c1c3ccccc3cc[n+]1CC2 [MJA-C13-22, (E)-13-(2-(dibenzo[b,d]furan-2-yl)vinyl)-6,7-dimethyl-4,5,8,9-tetrahydroisoquinolino[1,2-a]pyrido[1,2-k][2,9]phenanthroline-3,10-diium trifluoromethanesulfonate]	≥ 5.00	> 4.60	≤ 4.00	< 4.00	
C(=C\c1cc(/C=C/c2ccsc2)[n+]2c(c1)-c1c(ccc3c1-c1cccc[n+]1CC3)CC2)/c1ccsc1 [HTA-C5-9, 2,4-bis((E)-2-(thiophen-3-yl)vinyl)-6,7,10,11-tetrahydrodipyrido[2,1-a:1′,2′-k][2,9]phenanthroline-5,12-diium trifluoromethanesulfonate]					inhibition at 50 µM [1]: > 10%; activity at 50 µM [1]: 85%
Cc1[nH]c2ccccc2c1/C=C/c1cc2ccccc2[n+]2c1-c1c(ccc3c1-c1cccc[n+]1CCC3)CCC2.O=S(=O)([O-])C(F)(F)F.O=S(=O)([O-])C(F)(F)F [MSC-C10-11, 19-((E)-2-(2-methyl-1H-indol-3-yl)vinyl)-6,7,8,11,12,13-hexahydropyrido[1′″,2″:1″,2″]azepino[4″,3″:5′,6′]benzo[1′,2′:3,4]azepino[1,2-a]quinoline-5,14-diium trifluoromethanesulfonate]					pIC50 [2, 8]: 4.60 to 4.96; pIC50 [3, 9]: ≤ 4.00; luciferase expression relative to control (control = 100%) [1]: 74%
Cc1c(C)c2c(c3c1CC[n+]1ccc4ccccc4c1-3)-c1cccc(/C=C/c3cccc4c3sc3ccccc34)[n+]1CC2 [VDJA-C13-20, (E)-11-(2-(dibenzo[b,d]thiophen-4-yl)vinyl)-6,7-dimethyl-4,5,8,9-tetrahydroisoquinolino[1,2-a]pyrido[1,2-k][2,9]phenanthroline-3,10-diium trifluoromethanesulfonate]	4.60 to 4.96	> 4.60	≤ 4.00	< 4.00	
19-((E)-2-(7-methyl-1H-indol-3-yl)vinyl)-6,7,8,11,12,13-hexahydropyrido[1′,2′″:1″,2″]azepino[4″,3″:5′,6′]benzo[1′,2′:3,4]azepino[1,2-a]quinoline-5,14-diium trifluoromethanesulfonate [MSC-C10-31]					pIC50 [2, 8]: 4.60 to 4.96; pIC50 [3, 9]: ≤ 4.29
C(=C\c1c[nH]c2c1ccc1ccccc12)/c1cc[n+]2c(c1)-c1c(ccc3c1-c1c4ccccc4cc[n+]1CC3)CC2 [MSB-C13-16, (E)-13-(2-(1H-benzo[g]indol-3-yl)vinyl)-4,5,8,9-tetrahydroisoquinolino[1,2-a]pyrido[1,2-k][2,9]phenanthroline-3,10-diium trifluoromethanesulfonate]	4.60 to 4.96		≤ 4.29		
Cc1c(C)c2c(c3c1CC[n+]1ccc(/C=C/c4c[nH]c5ccc(Br)cc45)cc1-3)-c1c3ccccc3cc[n+]1CC2 [MJA-C9-30, (E)-13-(2-(5-bromo-1H-indol-3-yl)vinyl)-6,7-dimethyl-4,5,8,9-tetrahydroisoquinolino[1,2-a]pyrido[1,2-k][2,9]phenanthroline-3,10-diium trifluoromethanesulfonate]					inhibition at 50 µM [1]: > 40%; activity at 50 µM [1]: 55%
C(=C\c1cc(-c2ccccc2)cs1)/c1cc[n+]2c(c1)-c1c(ccc3c1-c1c4ccccc4cc[n+]1CC3)CC2 [MSB-C11-7, (E)-13-(2-(4-phenylthiophen-2-yl)vinyl)-4,5,8,9-tetrahydroisoquinolino[1,2-a]pyrido[1,2-k][2,9]phenanthroline-3,10-diium trifluoromethanesulfonate]	4.60 to 4.96	> 4.60	≤ 4.00	< 4.00	
